In patent US20110150772A1, “MODULATORS OF CARNITINE OCTANOYLTRANSFERASE IN THE TREATMENT OF ACNE, OF SEBORRHOEIC DERMATITIS OR OF HYPERSEBORRHOEA” (GALDERMA RESEARCH & DEVELOPMENT, priority 2008, published 2011):

Assays:
[1] = test system: CROT (carnitine O-octanoyltransferase) gene expression; test: Expression of CROT in Fuzzy rat epidermal split after 8 days of topical treatment, Affymetrix transcriptome analysis; format: in vivo; conditions: female Fuzzy rats, topical 1% once a day for 8 days, Affymetrix 1368426_at, control condition 601
Protocol: Fuzzy rat epidermal split expression data
The studies are carried out in female Fuzzy rats (Hsd: Fuzzy-fz) ten weeks old at the beginning of the study. The animals are treated at a dose of 1% (PPARg agonist rosiglitazone in solution in acetone) once a day for 8 days. Two hours after the final treatment, the animals are sacrificed by euthanasia and the skin on the back is removed. After incubation in dispase, the epidermis carrying the sebaceous glands is detached from the dermis (epidermal split). After grinding of the samples, the mRNA is prepared using Qiagen columns, in accordance with the supplier's instructions. The material thus prepared is subjected to large-scale transcriptome analysis on an Affymetrix platform. The data are subsequently standardized and, after statistical analysis, the results produced are expressed in arbitrary expression units (see below) accompanied, for each piece of data, by a statistical value for presence of the transcript (presence=1; absence=0).
Table 2: Measurement of the Expression of CROT in an Epidermal Split after 8 Days of Topical Treatment of FUZZY Rat Females with a PPARγ Agonist (Rosiglitazone) at 1%

[2] = test system: CROT gene expression; test: Expression of CROT in rat epidermal split containing sebaceous glands after topical PPARgamma agonist, real-time PCR; format: in vivo; conditions: topical 1% in acetone, female Fuzzy rats, standardized to 18S, versus carrier group; for CROT Relative induction - Kinetics (Hours) 0: 0 hours; for CROT Relative induction - Kinetics (Hours) 8: 8 hours; for CROT Relative induction - Kinetics (Hours) 24: 24 hours; for CROT Relative induction - Kinetics (Hours) 48: 48 hours; for CROT Relative induction - Kinetics (Hours) 96: 96 hours
Source text: Animals: Species: rat • Strain: Ico: Hsd: FUZZY-fz • Gender: female • Age: 10 weeks
Number per batch: 40 (8 animals per group)
Treatment: Route of administration: topical • Compound/batch: PPARgamma agonists:
A: 5-{4-[2-(methylpyridin-2-ylamino)ethoxy]-benzyl}thiazolidine-2,4-dione
B: (2-methoxyethoxymethoxy)naphthalene-2-carboxylic acid [4′-(2,4-dioxothiazolidin-5-ylmethyl)biphenyl-3-ylmethyl]methylamide or rosiglitazone
C: (S)-2-ethoxy-3-{4-[6-(3-heptyl-1-methyl-ureido)pyridin-2-yl]phenyl}propionic acid • Doses: 1% • Carrier: acetone (001) • Duration 96 hours
Method of evaluation: The animals are weighed at the beginning and at the end of the study. Skin biopsies are taken (6 samples of skin excised per rat) in order to analyse the expression of the genes (RNA extraction, reverse transcriptase and real-time PCR). The samples are stored overnight at 4° C. before incubation in 1M sodium bromide (NaBr) for 2 hours at 37° C. After incubation, the samples are separated into epidermis or dermis. The epidermal samples are stored at […]. Under these conditions, the sebaceous glands are in the epidermal split. PCRs are carried out, beginning with the CNAs originating from the epidermal splits containing sebaceous glands from control rats or rats treated with a PPARγ agonist: the mRNA is extracted using a column and quantified. The quality of the mRNAs is measured and is represented by the 18S/28S ratio. The results are standardized with respect to 18S, expressed as relative induction versus untreated animals (carrier group). The statistical analysis is obtained using internal software based on a modified Monte Carlo statistical analysis.

Row | Structure (SMILES) | Expression after treatment with 1% rosiglitazone [1] | CROT Relative induction - Kinetics (Hours) 0 [2] | CROT Relative induction - Kinetics (Hours) 8 [2] | CROT Relative induction - Kinetics (Hours) 24 [2] | CROT Relative induction - Kinetics (Hours) 48 [2] | CROT Relative induction - Kinetics (Hours) 96 [2]
1 | CN(CCOc1ccc(CC2SC(=O)NC2=O)cc1)c1ccccn1 (centres unmarked) [rosiglitazone] | 742 arbitrary expression units | – | – | – | – | –
2 | CN(CCOc1ccc(CC2SC(=O)NC2=O)cc1)c1ccccn1 (centres unmarked) [A, 5-{4-[2-(methylpyridin-2-ylamino)ethoxy]-benzyl}thiazolidine-2,4-dione] | – | 1 | 2.24 | 2.16 | 1.54 | 0.94
3 | CCCCCCCNC(=O)N(C)c1cccc(-c2ccc(C[C@H](OCC)C(=O)O)cc2)n1 [C, (S)-2-ethoxy-3-{4-[6-(3-heptyl-1-methyl-ureido)pyridin-2-yl]phenyl}propionic acid] | – | 1 | 0.40 | 0.52 | 0.36 | 0.20
